≈ marks a conversion by molar mass, not a printed value.
Experiments:
Enterococcus [1] = assay: Antibacterial activity against vancomycin-susceptible Enterococcus NR 31888 assessed as bacterial growth inhibition incubated for 16 to 18 hrs by broth microdilution method; format: functional; settings: time 16-18 hrs
Enterococcus [2] = assay: Antibacterial activity against vancomycin-resistant Enterococcus NR 31912 assessed as bacterial growth inhibition incubated for 16 to 18 hrs by broth microdilution method; format: functional; settings: time 16-18 hrs
Staphylococcus aureus [3] = assay: Synergistic bactericidal activity against Staphylococcus aureus ATCC 29213 assessed as reduction in bacterial load at 1X MIC preincubated for 6 hrs in presence of gentamycin followed by subculturing on TSA plate for 18 to 20 hrs by time-kill assay; format: functional; settings: time 24-26 hrs
Pseudomonas aeruginosa = assay: Antibacterial activity against Pseudomonas aeruginosa ATCC 27853 assessed as bacterial growth inhibition incubated for 16 to 18 hrs by broth microdilution method; format: functional; settings: time 16-18 hrs
Staphylococcus aureus [4] = assay: Antibacterial activity against Staphylococcus aureus ATCC 29213 assessed as fractional inhibitory concentration in presence of minocycline incubated for 24 hrs by checkerboard assay; format: functional
Staphylococcus aureus [5] = assay: Antibiofilm activity against Staphylococcus aureus ATCC 29213 assessed as reduction in preformed bacterial biofilm at 1XMIC incubated for 24 hrs by crystal violet staining based microtiter plate reader assay; format: functional
Staphylococcus aureus [6] = assay: Antibacterial activity against Staphylococcus aureus ATCC 29213 assessed as bacterial growth inhibition in presence of vancomycin incubated for 24 hrs by checkerboard assay; format: functional
Staphylococcus aureus [7] = assay: Antibacterial activity against Staphylococcus aureus ATCC 29213 infected in mouse J774.A1 assessed as reduction in intracellular bacterial burden at 5XMIC incubated for 24 hrs followed by replating on TSA plate for 24 hrs by intracellular killing assay; format: functional; settings: time 48 hrs
Enterococcus [8] = assay: Antibacterial activity against Enterococcus NR 31884 assessed as bacterial growth inhibition incubated for 16 to 18 hrs by broth microdilution method; format: functional; settings: time 16-18 hrs
Staphylococcus aureus [9] = assay: Antibacterial activity against Staphylococcus aureus ATCC 29213 assessed as bacterial growth inhibition in presence of gentamycin incubated for 24 hrs by checkerboard assay; format: functional
Staphylococcus aureus [10] = assay: Antibacterial activity against Staphylococcus aureus ATCC 29213 assessed as time for post-antibiotic effect at 1XMIC incubated for 1 hr followed by drug wash-out and measured every single 1 hr; format: functional
Staphylococcus aureus [11] = assay: Antibacterial activity against methicillin-resistant Staphylococcus aureus NRS 10198 assessed as bacterial growth inhibition incubated for 16 to 18 hrs by broth microdilution method; format: functional; settings: time 16-18 hrs
Staphylococcus aureus [12] = assay: Antibacterial activity against Staphylococcus aureus ATCC 29213 assessed as fractional inhibitory concentration in presence of daptomycin incubated for 24 hrs by checkerboard assay; format: functional
Staphylococcus aureus [13] = assay: Antibacterial activity against Staphylococcus aureus ATCC 29213 assessed as bacterial growth inhibition in presence of daptomycin incubated for 24 hrs by checkerboard assay; format: functional
Enterococcus [14] = assay: Antibacterial activity against vancomycin-susceptible Enterococcus NR 31884 assessed as bacterial growth inhibition incubated for 16 to 18 hrs by broth microdilution method; format: functional; settings: time 16-18 hrs
Staphylococcus aureus [15] = assay: Antibacterial activity against Staphylococcus aureus ATCC 29213 assessed as bacterial growth inhibition in presence of linezolid incubated for 24 hrs by checkerboard assay; format: functional
[16] = Selectivity index, ratio of CC50 for cytotoxicity against African green monkey Vero cells to MIC for antibacterial activity against Staphylococcus aureus ATCC 29213; format: toxicity, cell-based; settings: read-out: Selectivity Index
Klebsiella pneumoniae = assay: Antibacterial activity against Klebsiella pneumoniae BAA-1705 assessed as bacterial growth inhibition incubated for 16 to 18 hrs by broth microdilution method; format: functional; settings: time 16-18 hrs
Staphylococcus aureus [17] = assay: Antibacterial activity against Staphylococcus aureus ATCC 29213 assessed as time for post-antibiotic effect at 10XMIC incubated for 1 hr followed by drug wash-out and measured every single 1 hr; format: functional
Staphylococcus aureus [18] = assay: Antibacterial activity against Staphylococcus aureus ATCC 29213 assessed as bacterial growth inhibition in presence of levofloxacin incubated for 24 hrs by checkerboard assay; format: functional
Staphylococcus aureus [19] = assay: Antibacterial activity against vancomycin-resistant Staphylococcus aureus VRS1 assessed as bacterial growth inhibition incubated for 16 to 18 hrs by broth microdilution method; format: functional; settings: time 16-18 hrs
Staphylococcus aureus [20] = assay: Antibacterial activity against Staphylococcus aureus ATCC 29213 assessed as fractional inhibitory concentration in presence of rifampicin incubated for 24 hrs by checkerboard assay; format: functional
Staphylococcus aureus [21] = assay: Antibacterial activity against Staphylococcus aureus ATCC 29213 assessed as bacterial growth inhibition in presence of rifampicin incubated for 24 hrs by checkerboard assay; format: functional

CC(C)=CCc1c(O)cc2oc(-c3ccc(O)cc3O)c(CC=C(C)C)c(=O)c2c1O [CUDRAFLAVONE C]
MIC (Enterococcus [1]): 4 µg/mL (≈ 9.47 µM) | MIC (Enterococcus [2]): 4 µg/mL (≈ 9.47 µM) | Activity (Staphylococcus aureus [3]): 9 log10CFU/ml | MIC (Pseudomonas aeruginosa): > 64 µg/mL | FIC (Staphylococcus aureus [4]): 1.5 | inhibition (INH) (Staphylococcus aureus [5]): 8% | MIC (Staphylococcus aureus [6]): 2 µg/mL | Activity (Staphylococcus aureus [7]): 2 log10CFU/ml | MIC (Enterococcus [8]): 4 µg/mL (≈ 9.47 µM) | MIC (Staphylococcus aureus [9]): 0.06 µg/mL | Time (Staphylococcus aureus [10]): 2 h | MIC (Staphylococcus aureus [11]): 4 µg/mL (≈ 9.47 µM) | FIC (Staphylococcus aureus [12]): 1.5 | MIC (Staphylococcus aureus [13]): 2 µg/mL | MIC (Enterococcus [14]): 4 µg/mL (≈ 9.47 µM) | MIC (Staphylococcus aureus [15]): 2 µg/mL | selectivity ratio [16]: 25 | MIC (Klebsiella pneumoniae): > 64 µg/mL | Time (Staphylococcus aureus [17]): >22 h | MIC (Staphylococcus aureus [18]): 2 µg/mL | MIC (Staphylococcus aureus [19]): 4 µg/mL (≈ 9.47 µM) | FIC (Staphylococcus aureus [20]): 1.5 | MIC (Staphylococcus aureus [21]): 2 µg/mL
